34 compounds from ChEMBL document CHEMBL5233233, “Histone deacetylase 3 (HDAC3) inhibitors as anticancer agents: A review” (Eur J Med Chem, 2020) can be followed below.

Molecules are shown by their SMILES.

Experiment [1] deals with T1, Histone deacetylase 3 (Homo sapiens, UniProt O15379). As to the kind of experiment: Inhibition of HDAC3 (unknown origin).
Experiment [2] has as its target T2, Histone deacetylase 1 (Homo sapiens, UniProt Q13547). The experiment is described as follows: Inhibition of human recombinant HDAC1 expressed in baculovirus by using Boc-L-Lys(Ac)-AMC as substrate measured after 24 hrs by fluorescence based analysis.
Experiment [3] has as its target T3, Histone deacetylase 2 (Homo sapiens, UniProt Q92769). The experiment is described as follows: Inhibition of human recombinant HDAC2 expressed in baculovirus by using Boc-L-Lys(Ac)-AMC as substrate measured after 24 hrs by fluorescence based analysis.
For experiment [4], the target named is T1, Histone deacetylase 3. As to the kind of experiment: Inhibition of human recombinant HDAC3 expressed in baculovirus by using Boc-L-Lys(Ac)-AMC as substrate measured after 24 hrs by fluorescence based analysis.
Experiment [5] addresses T4, Histone deacetylase 8 (Homo sapiens, UniProt Q9BY41).
T4 sequence (Q9BY41 whole entry): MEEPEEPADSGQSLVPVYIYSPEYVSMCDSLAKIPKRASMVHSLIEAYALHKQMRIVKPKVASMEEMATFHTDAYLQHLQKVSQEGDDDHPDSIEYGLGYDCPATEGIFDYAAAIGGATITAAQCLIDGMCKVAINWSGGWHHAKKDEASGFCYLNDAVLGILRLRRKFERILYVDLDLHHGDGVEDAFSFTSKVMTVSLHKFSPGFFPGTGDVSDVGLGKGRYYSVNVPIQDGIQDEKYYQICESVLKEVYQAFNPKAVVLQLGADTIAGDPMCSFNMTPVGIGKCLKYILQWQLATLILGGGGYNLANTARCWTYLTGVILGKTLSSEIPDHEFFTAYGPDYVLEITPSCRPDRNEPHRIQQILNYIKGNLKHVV
The experiment is described as follows: Inhibition of human recombinant HDAC8 expressed in Escherichia coli BL21 (DE3) cells by using Boc-L-Lys(Ac)-AMC as substrate measured after 24 hrs by fluorescence based analysis.

Experiment [6] has as its target T2, Histone deacetylase 1. The experiment is described as follows: Inhibition of human HDAC1 using human HeLa cell nuclear extract at 1 uM measured after 60 mins by fluorescence assay. The format is subcellular, Nucleus.
The target of experiment [7] is T3, Histone deacetylase 2. The experiment is described as follows: Inhibition of human HDAC2 using human HeLa cell nuclear extract at 1 uM measured after 60 mins by fluorescence assay. The format is subcellular, Nucleus.
The target in experiment [8] is T1, Histone deacetylase 3. As to the kind of experiment: Inhibition of human HDAC3 using human HeLa cell nuclear extract at 1 uM measured after 60 mins by fluorescence assay. The format is subcellular, Nucleus.
The target in experiment [9] is Histone deacetylase. As to the kind of experiment: Inhibition of human HDAC using human HeLa cell nuclear extract measured after 60 mins by fluorescence assay. The format is subcellular, Nucleus.
Experiment [10] has as its target T2, Histone deacetylase 1. The experiment is described as follows: Inhibition of human HDAC1 using fluorogenic as substrate measured after 30 mins by fluorescence based analysis.
In experiment [11] the target is T1, Histone deacetylase 3. The experiment is described as follows: Inhibition of human HDAC3 using fluorogenic as substrate measured after 30 mins by fluorescence based analysis.
For experiment [12], the target named is T2, Histone deacetylase 1. The experiment is described as follows: Inhibition of HDAC1 (unknown origin) using acetylated 7-amino-4-methylcoumarin (AMC) as peptide substrate measured after 20 mins by fluorescence based analysis.
Experiment [13] addresses T3, Histone deacetylase 2. The experiment is described as follows: Inhibition of HDAC2 (unknown origin) using acetylated 7-amino-4-methylcoumarin (AMC) as peptide substrate measured after 20 mins by fluorescence based analysis.
Experiment [14] concerns the target T1, Histone deacetylase 3. As to the kind of experiment: Inhibition of HDAC3 (unknown origin) using acetylated 7-amino-4-methylcoumarin (AMC) as peptide substrate measured after 20 mins by fluorescence based analysis.
The target in experiment [15] is T2, Histone deacetylase 1. The experiment is described as follows: Inhibition of HDAC1 (unknown origin).
Experiment [16] has as its target T3, Histone deacetylase 2. As to the kind of experiment: Inhibition of HDAC2 (unknown origin).
Experiment [17] has as its target T2, Histone deacetylase 1. As to the kind of experiment: Inhibition of HDAC1 (unknown origin) using Boc-Lys (Ac)-AMC as substrate measured after 30 mins by fluorescence based analysis.

For orientation: IC50 means the point on the concentration scale where inhibition reaches its midpoint.

T2 sequence (Q13547 whole entry): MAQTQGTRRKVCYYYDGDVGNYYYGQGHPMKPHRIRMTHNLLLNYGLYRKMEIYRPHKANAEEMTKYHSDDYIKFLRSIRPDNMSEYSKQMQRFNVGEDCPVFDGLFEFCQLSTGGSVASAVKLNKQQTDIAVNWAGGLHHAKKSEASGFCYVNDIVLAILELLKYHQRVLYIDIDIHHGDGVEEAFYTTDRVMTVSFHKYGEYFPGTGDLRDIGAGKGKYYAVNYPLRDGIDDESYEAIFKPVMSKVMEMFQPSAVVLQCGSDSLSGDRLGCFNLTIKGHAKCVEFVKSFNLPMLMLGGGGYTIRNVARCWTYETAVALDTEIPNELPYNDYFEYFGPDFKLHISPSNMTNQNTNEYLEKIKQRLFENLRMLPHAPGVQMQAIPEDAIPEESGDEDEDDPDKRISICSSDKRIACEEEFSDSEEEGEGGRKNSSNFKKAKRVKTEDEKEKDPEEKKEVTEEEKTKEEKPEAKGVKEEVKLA
T1 sequence (O15379 whole entry): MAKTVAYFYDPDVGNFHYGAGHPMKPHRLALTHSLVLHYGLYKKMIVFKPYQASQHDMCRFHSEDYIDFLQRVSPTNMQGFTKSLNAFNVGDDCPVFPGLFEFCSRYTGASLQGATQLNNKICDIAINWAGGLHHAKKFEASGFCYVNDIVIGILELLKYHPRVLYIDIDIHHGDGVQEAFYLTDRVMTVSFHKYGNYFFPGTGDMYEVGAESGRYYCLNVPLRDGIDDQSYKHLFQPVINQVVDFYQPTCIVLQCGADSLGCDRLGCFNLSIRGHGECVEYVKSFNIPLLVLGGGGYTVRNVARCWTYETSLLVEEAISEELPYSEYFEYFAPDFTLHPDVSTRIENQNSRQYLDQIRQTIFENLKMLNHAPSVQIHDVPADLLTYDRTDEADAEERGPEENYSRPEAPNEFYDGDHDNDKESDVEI
T3 sequence (Q92769 whole entry): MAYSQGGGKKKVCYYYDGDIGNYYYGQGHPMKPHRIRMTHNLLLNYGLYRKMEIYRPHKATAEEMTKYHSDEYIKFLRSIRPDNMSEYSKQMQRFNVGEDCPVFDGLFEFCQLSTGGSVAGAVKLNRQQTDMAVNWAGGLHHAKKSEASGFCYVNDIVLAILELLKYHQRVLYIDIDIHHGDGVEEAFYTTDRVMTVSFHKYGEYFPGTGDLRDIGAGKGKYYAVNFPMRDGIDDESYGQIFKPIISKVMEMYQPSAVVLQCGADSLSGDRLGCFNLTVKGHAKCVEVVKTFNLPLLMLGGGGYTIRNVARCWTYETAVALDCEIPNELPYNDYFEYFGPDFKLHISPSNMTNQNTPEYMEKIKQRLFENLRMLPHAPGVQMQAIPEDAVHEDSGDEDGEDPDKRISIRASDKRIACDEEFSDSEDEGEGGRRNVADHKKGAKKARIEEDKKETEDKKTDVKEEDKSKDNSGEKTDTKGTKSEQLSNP

The compound `CCC(=O)CCCCC[C@H](NC(=O)N1CCOCC1)c1ncc(-c2cc3ccccc3nc2OC)o1` returned a concentration for half-maximal inhibition (IC50) in experiment [1] of 0.007 µM.
For the compound `O=C(CCCCCCNCc1ccc2ccccc2c1)NO`, the IC50 in experiment [2] was determined as 0.039 µM; in experiment [3], 0.32 µM; in experiment [4], 0.068 µM; in [5], 0.32 µM.
Take `Cc1ccccc1CCc1cn(CCCCCC(=O)NO)c2ccc(-c3c(C)noc3C)cc12`: the concentration for half-maximal inhibition (IC50) was 0.314 µM in experiment [6], more than 1 µM in experiment [7] and 0.062 µM in experiment [8].
For `O=C(NO)c1ccc(NC(=O)[C@@H](NC(=O)c2cccc(Br)c2)c2ccccc2)cc1`, the IC50 in experiment [9] stood at 0.0137 µM; in experiment [10], 0.0118 µM; in [11], 0.0085 µM.
Consider `Cc1cccc(Cc2cn(CCCCCC(=O)NO)c3ccc(-c4c(C)noc4C)cc23)c1`, for which the values for the IC50 in experiment [6], in experiment [7] and in experiment [8] were 0.222 µM, 0.568 µM and 0.062 µM, respectively.
As for `O=C(CCCCCCNCc1ccc(-c2ccccc2)s1)NO`, the IC50 in [2] stood at 0.048 µM; in experiment [3], 0.69 µM; in experiment [4], 0.038 µM; in experiment [5], 0.55 µM.
With `Cc1noc(C)c1-c1ccc2c(c1)c(Cc1cccc(C(F)(F)F)c1)cn2CCCCCCC(=O)NO`, the concentration for half-maximal inhibition (IC50) in experiment [6] turned out to be 0.031 µM; in experiment [7], 0.079 µM; in [8], 0.013 µM.
For the compound `CCCCNNC(=O)c1ccccc1`, the IC50 in experiment [12], in experiment [13] and in [14] was more than 50 µM throughout.
`O=C(NO)c1ccc(NC(=O)[C@@H](NC(=O)c2ccc3ccccc3c2)c2ccccc2)cc1`: the results for the 50% inhibitory concentration (IC50) in [9] and in [11] were 0.0143 µM and 0.0168 µM, respectively.
Turning to `O=C(CCCCCCN(Cc1cc2ccccc2[nH]1)Cc1cc2ccccc2[nH]1)NO`, the 50% inhibitory concentration (IC50) in [2] is 0.34 µM; in experiment [3] it was 3.7 µM; in experiment [4], 1.3 µM; in experiment [5], 4.6 µM.
Turning to `Nc1ccccc1NC(=O)c1ccc(-c2cn(CCc3ccsc3)nn2)cc1`, the IC50 was more than 100 µM in [15] and more than 0.019 µM in experiment [16].
In the case of `Cc1ccccc1Cc1cn(CCCCCCC(=O)NO)c2ccc(-c3c(C)noc3C)cc12`, the values for the 50% inhibitory concentration (IC50) in [6], in [7] and in experiment [8] were 0.22 µM, more than 1 µM and 0.05 µM, respectively.
Consider `O=C(CCCCCCNCc1cc2ccccc2[nH]1)NO`, for which the IC50 in experiment [2] came to 0.061 µM; in experiment [3], 0.26 µM; in experiment [4] it was 0.025 µM; in [5] it was 0.62 µM.
In the same order, the values of `O=C(CCCCCCN(Cc1ccc2ccccc2c1)Cc1ccc2ccccc2c1)NO` are 1.1 µM, 4.2 µM, 0.95 µM and 5.4 µM.
In the same order, the values of `O=C(CCCCCCNCc1ccc(F)cc1)NO` are 0.22 µM, 1.5 µM, 0.24 µM and 1.7 µM.
For `O=C(CCCCCCN(Cc1ccc(-c2ccccc2)s1)Cc1ccc(-c2ccccc2)s1)NO`, in that order: 0.84 µM, 3 µM, 1.1 µM and 4.1 µM.
Consider `CN(C)c1cccc2c(S(=O)(=O)N[C@H](C(=O)Nc3ccc(C(=O)NO)cc3)c3ccccc3)cccc12`, for which the half-inhibitory concentration (IC50) in experiment [9] was 0.0097 µM; in experiment [10], 0.0247 µM; in experiment [11], 0.0244 µM.
As to `O=C(NNCCCc1ccccc1)c1ccc(Br)cc1`, the IC50 was more than 50 µM in [12], more than 50 µM in [13] and 24.2 µM in experiment [14].
Regarding `COC(=O)/C=C/c1ccc(OCCCCNc2cc3c([nH]c4ccccc43)c(-c3ccc(OC)cc3)n2)c(OC)c1`, the IC50 in experiment [17] is 0.061 µM.
As for `O=C(NO)c1ccc(NC(=O)[C@@H](NS(=O)(=O)c2cccc3ccccc23)c2ccccc2)cc1`, in [9], the half-maximal inhibitory concentration (IC50) is 0.0156 µM.
`O=C(NNCCCC1CCCC1)c1ccc(Br)cc1`: the IC50 in [12], in experiment [13] and in [14] was more than 50 µM each time.
Turning to `Cc1noc(C)c1-c1ccc2c(c1)c(CCc1ccccc1)cn2CCCCCCC(=O)NO`, the IC50 in experiment [6] worked out at 0.24 µM; in experiment [7] it was 0.139 µM; in experiment [8], 0.028 µM.
In the same order, the values of `Cc1noc(C)c1-c1ccc2c(c1)c(CCc1ccc(F)cc1)cn2CCCCCC(=O)NO` are 0.259 µM, 0.946 µM and 0.017 µM.
With `O=C(CCCCCCNCc1ccc([N+](=O)[O-])cc1)NO`, the IC50 in experiment [2] was 0.22 µM; in experiment [3], 2.9 µM; in experiment [4], 1 µM; in [5], 2.1 µM.
Consider `Cc1cccc(Cc2cn(CCCCCCC(=O)NO)c3ccc(-c4c(C)noc4C)cc23)c1`, for which the IC50 came to 0.253 µM in experiment [6], 0.127 µM in [7] and 0.024 µM in experiment [8].
For `Cc1noc(C)c1-c1ccc2c(c1)c(Cc1ccc(F)cc1)cn2CCCCCC(=O)NO`, in that order: 0.341 µM, 0.517 µM and 0.039 µM.
For `Cc1ccc(Cc2cn(CCCCCCC(=O)NO)c3ccc(-c4c(C)noc4C)cc23)cc1`, in that order: 0.431 µM, 0.438 µM and 0.018 µM.
In experiment [1], `CCC(=O)CCCCC[C@H](NC(=O)C(C)(C)N(C)C)c1ncc(-c2cc3ccccc3nc2OC)o1` came in with a 50% inhibitory concentration (IC50) of 0.0006 µM.
Consider `Nc1ccccc1NC(=O)c1ccc(-c2cn(CCc3cccc([N+](=O)[O-])c3)nn2)s1`, for which the IC50 in experiment [16] was more than 0.1 µM.
On to `COc1ccc(CNCCCCCCC(=O)NO)cc1OC`, for which the half-inhibitory concentration (IC50) in [2] was determined as 0.21 µM; in experiment [3], 1.8 µM; in experiment [4], 0.18 µM; in experiment [5], 1.8 µM.
`O=C(NO)c1ccc(NC(=O)[C@@H](NC(=O)c2ccc(Cl)cc2)c2ccccc2)cc1` yielded an IC50 in experiment [9] of 0.3486 µM.
In the case of `Cc1noc(C)c1-c1ccc2c(c1)c(Cc1ccc(F)cc1)cn2CCCCCCC(=O)NO`, the results for the IC50 in experiment [6] and in experiment [7] were 0.181 µM and 0.298 µM, respectively.
On to `Cc1noc(C)c1-c1ccc2c(c1)c(Cc1ccccc1)cn2CCCCCCC(=O)NO`, for which the values for the half-maximal inhibitory concentration (IC50) in experiment [6], in experiment [7] and in experiment [8] were 0.179 µM, 0.118 µM and 0.023 µM, respectively.
Consider `Cc1cc(CNCCCCCCC(=O)NO)ccc1F`, for which the IC50 in experiment [2] is 0.14 µM; in experiment [3], 0.79 µM; in experiment [4] it was 0.19 µM; in experiment [5], 2.8 µM.
